One assay has as its system Enterococcus faecalis. The assay is described as follows: Single-point BisEDT-antibiotic combination FICI. The assay is classed as cell-based. To be noted: E Fc 3121.
In the next assay the test system is Escherichia coli. Kind of assay: Single-point BisEDT-antibiotic combination FICI. The assay is classed as cell-based.
A further assay has as its system P. aeruginosa. Kind of assay: Checkerboard broth microdilution MIC and FICI. The assay is classed as cell-based, Pseudomonas aeruginosa. To be noted: Pseudomonas aeruginosa, P. aeruginosa 103; compound alone; read-out: MIC (μg/mL) Alone. The method, then:
(§1) The effects of combinations of microparticulate Bis-EDT and four Bis-EDT analogs prepared as described above, and other agents against representative strains of several Gram-negative pathogenic bacteria were tested. A modification of a common laboratory method was used to determine synergism (FICI≦0.5), enhancement (0.5<FICI≦1.0), antagonism (FICI>4.0) and indifference (1.0<FICI≦4.0) used fractional inhibitory concentrations (FICs) and FIC indices (FICI) (Eliopoulos G and R Moellering. 1991. Antimicrobial combinations. In Antibiotics in Laboratory Medicine, Third Edition, edited by V Lorian. Williams and Wilkins, Baltimore, Md., pp. 432-492; Odds, 2003 J. Antimicrob. Chemother. 52(1):1). The checkerboard technique was used to determine FIC indices and was employed in this study.
(§2) Stock solutions of all test articles were prepared at 40× the final target concentration in the appropriate solvent. […] The final drug concentrations in the FIC assay plates were set to bracket the MIC value of each agent for each test organism, unless the strain was totally resistant to the test agent. […] The test organisms were originally received from clinical sources, or from the American Type Culture Collection. Upon receipt, the isolates were streaked onto Tryptic Soy Agar II (TSA). Colonies were harvested from these plates and a cell suspension was prepared in an appropriate broth growth medium containing cryoprotectant. Aliquots were then frozen at −80° C. The frozen seeds of the organisms to be tested in a given assay were thawed, streaked for isolation onto TSA plates, and incubated at 35° C. All organisms were tested in Mueller Hinton II Broth (Becton Dickinson, Lot No. 9044411). The broth was prepared at 1.05× normal weight/volume to offset the 5% volume of the drugs in the final test plates.
(§3) Minimal Inhibitory Concentration (MIC) values were previously determined using the broth microdilution method for aerobic bacteria (Clinical and Laboratory Standards Institute (CLSI). Methods for Dilution Antimicrobial Susceptibility Tests for Bacteria That Grow Aerobically; Approved Standard—Eighth Edition. CLSI document M07-A8 [ISBN 1-56238-689-1]. Clinical and Laboratory Standards Institute, 940 West Valley Road, Suite 1400, Wayne, Pa. 19087-1898 USA, 2009.).
(§4) FIC values were determined using a broth microdilution method previously described (Sweeney et al., 2003 Antimicrob. Agents Chemother. 47(6):1902-1906). To prepare the test plates, automated liquid handlers (Multidrop 384, Labsystems, Helsinki, Finland; Biomek 2000 and Multimek 96, Beckman Coulter, Fullerton Calif.) were used to conduct serial dilutions and liquid transfers.
(§5) The appropriate wells of standard 96-well microdilution plates (Falcon 3918) were filled with 150 μL of the appropriate solvent in columns 2-12 using the Multidrop 384. Three hundred microliters of each secondary test drug was added to each well in Column 1 of the plates. These plates were used to prepare the drug “mother plates” which provided the serial drug dilutions for the drug combination plates. The Biomek 2000 was used to transfer 150 μL of each secondary drug solution (40×) from the wells in Column 1 of the mother plate and to make eleven 2-fold serial dilutions. Mother plates of Bis-EDT (and analogs) were serial diluted top to bottom by hand, using a multichannel pipette. Two mother plates, one for each secondary drug and one for Bis-EDT (or analogs), were combined to form a “checkerboard” pattern by transfer of equal volumes (using a multi-channel pipette) to the drug combination plate. Row H and Column 12 each contained serial dilutions of one of the agents alone for determination of the MIC.
(§6) The “daughter plates” were loaded with 180 μL of test medium using the Multidrop 384. Then, the Multimek 96 was used to transfer 10 μL of drug solution from each well of the drug combination mother plate to each corresponding well of the daughter plate in a single step.

Assay [1] concerns Staphylococcus aureus (SA, MRSA). Kind of assay: Single-point BisEDT-antibiotic combination FICI. It counts as cell-based.
The next assay deals with Klebsiella pneumoniae. Kind of assay: Single-point BisEDT-antibiotic combination FICI. It counts as cell-based. To be noted: KP 1231.
For assay [2], the system named is Streptococcus pneumoniae (SP, PRSP). Kind of assay: Single-point BisEDT-antibiotic combination FICI. The note with it: PRSP 5348.
For the next assay, the system named is Bukholderia multivorans. The assay is described as follows: Single-point BisEDT-antibiotic combination FICI. The assay is classed as cell-based. To be noted: Bmult 5665.
The subject of another assay is Burkholderia cepacia. Kind of assay: Single-point BisEDT-antibiotic combination FICI. The assay is classed as cell-based. To be noted: Bcep 1756.
For the next assay, the system named is Acinetobacter baumanii. Kind of assay: Single-point BisEDT-antibiotic combination FICI. The note with it: Abau 2594. It counts as cell-based.
The subject of a further assay is Pseudomonas aeruginosa. Kind of assay: Single-point BisEDT-antibiotic combination FICI. It counts as cell-based. The note with it: PA 1380.
In assay [3] the test system is Gram-negative pathogenic bacteria. Kind of assay: Checkerboard broth microdilution MIC and FICI. It counts as cell-based. The note with it: compound alone; for MIC: Klebsiella pneumoniae, read-out: MIC (μg/mL) Alone. As to the method:
as §1, §2, §3, §4, §5, §6

Assay [4] deals with S. epidermidis S2400-1 biofilm. The assay is described as follows: Biofilm prevention, BisEDT-antibiotic combinations. It counts as cell-based, Staphylococcus epidermidis. As to the method: S. epidermidis grown in TSB+2% glucose in polystyrene plates for 48 h at 37° C. Gatifloxacin (GF), clindamycin (CM), minocycline (MC), gentamicin (GM), vancomycin (VM), cefazolin (CZ), nafcillin (NC), and rifampicin (RP). […]

For the next assay, the system named is S. epidermidis. The assay is described as follows: Broth dilution MIC/MBC, BT-antibiotic combinations. The assay is classed as cell-based, Staphylococcus epidermidis. As to the method:
Materials & Methods. Susceptibility studies were performed by broth dilution in 96-well tissue culture plates (Nalge Nunc International, Denmark) in accordance with NCCLS protocols (National Committee for Clinical Laboratory Standards. (1997). Methods for Dilution Antimicrobial Susceptibility Tests for Bacteria that Grow Aerobically: Approved Standard M7-A2 and Informational Supplement M100-S10. NCCLS, Wayne, Pa., USA).
Briefly, overnight bacterial cultures were used to prepare 0.5 McFarland standard suspensions, which were further diluted 1:50 (˜2×10^6 cfu/mL) in cation-adjusted Mueller-Hinton broth medium (BBL, Cockeysville, Md., USA). BTs (prepared as described above) and antibiotics were added at incremental concentrations, keeping the final volume constant at 0.2 mL. Cultures were incubated for 24 h at 37° C. and turbidity was assessed by absorption at 630 nm using an ELISA plate reader (Biotek Instruments, Winooski, Vt., USA) according to the manufacturer's recommendations. […] Viable bacterial counts (cfu/mL) were determined by standard plating on nutrient agar.
The checkerboard method was used to assess the activity of antimicrobial combinations. The fractional inhibitory concentration index (FICI) and the fractional bactericidal concentration index (FBCI) were calculated, according to Eliopoulos et al. (Eliopoulos and Moellering, (1996) Antimicrobial combinations. In Antibiotics in Laboratory Medicine (Lorian, V., Ed.), pp. 330-96, Williams and Wilkins, Baltimore, Md., USA). Synergy was defined as an FICI or FBCI index of […], no interaction at >0.5-4 and antagonism at >4 (Odds, F C (2003) Synergy, antagonism, and what the chequerboard puts between them. Journal of Antimicrobial Chemotherapy 52:1). Synergy was also defined conventionally as ≧4-fold decrease in antibiotic concentration.

The mark [5] stands for this setting: S. epidermidis S2400-1, BisEDT 0.1 μg/ml.

Each structure is given as a SMILES string. Read-outs that look alike come from different tables or passages of the source.

As for `CO/N=C(\C(=O)N[C@@H]1C(=O)N2C(C(=O)O)=C(COC(C)=O)CS[C@H]12)c1csc(N)n1` [Cefotaxime], the “FICI, single-point BisEDT-antibiotic combination” value stood at 0.73 in the assay on Enterococcus faecalis; 1.37 with Escherichia coli (EC 102); 1.29 with Escherichia coli (EC 2232); 2.23 in [1] (MRSA 773); 1.11 in assay [1] (SA 100); 0.61 in the assay with Klebsiella pneumoniae. Besides, the “FICI, single-point BisEDT-antibiotic combination” value is on record as 1.11 in assay [2]; 1.11 in the assay with Bukholderia multivorans; 1.29 in the assay on Burkholderia cepacia; 1.29 in the assay with Acinetobacter baumanii; 0.64 in the assay with Pseudomonas aeruginosa. Further, the MIC came out at 16 µg/mL with P. aeruginosa; 0.06 µg/mL in assay [3] (K. pneumoniae 1346); 0.06 µg/mL in [3] (K. pneumoniae 1355); 16 µg/mL in assay [3] (K. pneumoniae 2238); 0.25 µg/mL in assay [3] (K. pneumoniae 2546); 0.12 µg/mL in assay [3] (K. pneumoniae 2549). Moreover, the “MIC (μg/mL) Alone” value was found to be 0.12 µg/mL in [3] (K. pneumoniae 1355), 8 µg/mL in assay [3] (K. pneumoniae 2238) and 0.06 µg/mL in [3] (K. pneumoniae 2549).

With `CN(C)c1ccc(O)c2c1C[C@H]1C[C@H]3[C@H](N(C)C)C(O)=C(C(N)=O)C(=O)[C@@]3(O)C(O)=C1C2=O` [Minocycline, minocycline], the “Δ (0.05 BE), biofilm prevention” value in assay [4] (0.05 μg/ml BisEDT) worked out at 1.2. For the same molecule, the “Biofilm Prevention (antibiotic concentration)” value in assay [4] (BisEDT 0 μg/ml) came to 0.85 µg/mL; in assay [4] (BisEDT 0.05 μg/ml), 0.73 µg/mL; in assay [4] (BisEDT 0.1 μg/ml), 0.08 µg/mL. Also, the “FICI, single-point BisEDT-antibiotic combination” value in the assay with Enterococcus faecalis amounted to 1.11; in the assay with Escherichia coli (EC 102), 1.37; in the assay on Escherichia coli (EC 2232), 1.04; in [1] (MRSA 773), 1.23; in assay [1] (SA 100), 1.09; with Klebsiella pneumoniae, 1.29. The “FICI, single-point BisEDT-antibiotic combination” value in assay [2] is 0.46; in the assay on Bukholderia multivorans it was 1.12; with Burkholderia cepacia it was 2.23; with Acinetobacter baumanii it was 1.29; in the assay on Pseudomonas aeruginosa it was 0.99. Further, the “Δ, MIC” value with S. epidermidis (S. epidermidis ATCC 35984, 0.05 μg/ml BisEDT) amounted to 3.3. Further, the MIC with S. epidermidis (S. epidermidis ATCC 35984, BisEDT 0.0 μg/ml) was found to be 0.13 µg/mL; in the assay on S. epidermidis (S. epidermidis ATCC 35984, BisEDT 0.05 μg/ml), 0.04 µg/mL; in the assay on S. epidermidis (S. epidermidis S2400-1, BisEDT 0 μg/ml) it was 1.13 µg/mL; with S. epidermidis (S. epidermidis S2400-1, BisEDT 0.05 μg/ml), 0.43 µg/mL; with S. epidermidis (setting [5]), 0.10 µg/mL. Also, the “Δ (0.05 BE), MIC” value in the assay on S. epidermidis (S. epidermidis S2400-1, 0.05 μg/ml BisEDT) stood at 2.63. Further, the “Δ (0.1 BE), MBC” value in the assay on S. epidermidis (S. epidermidis S2400-1, 0.1 μg/ml BisEDT) was 1.00. The MBC was 1.20 µg/mL in the assay with S. epidermidis (S. epidermidis S2400-1, BisEDT 0.0 μg/ml) and 1.20 µg/mL in the assay on S. epidermidis (setting [5]).

On to `CCN1CCN(C(=O)N[C@@H](C(=O)N[C@@H]2C(=O)N3[C@@H]2SC(C)(C)[C@@H]3C(=O)O)c2ccccc2)C(=O)C1=O` [Piperacillin], for which the “FICI, single-point BisEDT-antibiotic combination” value in the assay with Enterococcus faecalis was found to be 1.11; with Escherichia coli (EC 102) it was 0.87; with Escherichia coli (EC 2232), 1.29; in [1] (MRSA 773), 1.28; in [1] (SA 100), 0.57; with Klebsiella pneumoniae, 2.23. For the same molecule, the “FICI, single-point BisEDT-antibiotic combination” value in assay [2] came out at 1.11; in the assay on Bukholderia multivorans, 1.12; in the assay on Burkholderia cepacia, 1.12; in the assay with Acinetobacter baumanii, 1.12; with Pseudomonas aeruginosa, 0.67.

For `CN(C)[C@@H]1C(O)=C(C(N)=O)C(=O)[C@@]2(O)C(O)=C3C(=O)c4c(O)cccc4[C@@](C)(O)[C@H]3C[C@@H]12` [Tetracycline], the “FICI, single-point BisEDT-antibiotic combination” value in the assay with Enterococcus faecalis is 0.92; in the assay on Escherichia coli (EC 102), 0.62; in the assay with Escherichia coli (EC 2232) it was 0.79; in assay [1] (MRSA 773), 1.23; in [1] (SA 100) it was 0.89; with Klebsiella pneumoniae it was 1.29. Besides, the “FICI, single-point BisEDT-antibiotic combination” value was 0.34 in assay [2]; 1.12 in the assay on Bukholderia multivorans; 1.96 in the assay on Burkholderia cepacia; 1.12 with Acinetobacter baumanii; 1.29 with Pseudomonas aeruginosa.

For the origin of these results see patent US9408393B2, “Bismuth-thiols as antiseptics for agricultural, industrial and other uses” (Microbion Corporation, priority 2010, dated 2016).
